Among the data in patent publication US20250206729A1, “DUAL RAF AND TUBULIN INHIBITORS AND METHODS OF USE THEREOF” (Deciphera Pharmaceuticals, LLC, priority 2023, published 2025) are IC50 values, retold here.

In one assay the test system is HPAF-II cells. Briefly: HPAF-II cell proliferation assay. It is filed as cell-based. To be noted: Homo sapiens, HPAF-II; 115 to 120 h incubation, resazurin; read-out: HPAF-II (inhibition of cell proliferation, IC50). The method, then:
(§1) HPAF-II cells (catalog #CRL-1997) are obtained from the American Type Culture Collect (ATCC, Manassas, VA). Briefly, cells are grown in Minimum Essential Media supplemented with 10% characterized fetal bovine serum (Invitrogen, Carlsbad, CA) and 1% Penicillin/Streptomycin/L-Glutamine at 37° C., 5% CO2, and 95% humidity. Cells are expanded until reaching 70-95% confluency at which point they are sub-cultured or harvested for assay use. A serial dilution of test compound is dispensed into a 384-well black clear bottom plate in triplicate. 750 cells are added per well in 50 μL complete growth medium in the 384-well plate. Plates are incubated for 115 to 120 h at 37° C., 5% CO2, and 95% humidity. At the end of the incubation, 40 μL of a […] solution of resazurin (Sigma, St. Louis, MO) in PBS is added to each well of the plate and plates are incubated for an additional 18 to 24 h at 37° C., 5% CO2, and 95% humidity. Plates are read on a Synergy2 or equivalent reader (Biotek, Winooski, VT) using an excitation of 540 nm and an emission of 600 nm. Data is analyzed using Prism software (Graphpad, San Diego, CA) to calculate IC50 values.
On the technique in general: The colour change of resazurin is a common sign of viable cells or microbes.

In assay [1] the target is T1, B-Raf kinase (SEQ ID NO: 1) (Homo sapiens, UniProt P15056).
T1 construct: GST (N); purchased Sigma
The experiment in a line: Biochemical assay for B-Raf (coupled pyruvate kinase/lactate dehydrogenase). Particulars: 1 mM ATP; read-out: BRAF (inhibition of biochemical activity, IC50).

The next assay has as its system Pa16c cells. The experiment in a line: Pa16c cell proliferation assay. The format is cell-based. To be noted: 67 to 72 h incubation, resazurin; read-out: Pa16c (inhibition of cell proliferation, IC50). The method, then:
as §1, with “Pa16c” for “HPAF-II”, “cells” for “cells (catalog #CRL-1997)”, “Dr. Channing Der, University of North Carolina at Chapel Hill.” for “the American Type Culture Collect (ATCC, Manassas, VA).”, “Dulbecco's Modified Eagle Medium” for “Minimum Essential Media”, “67” for “115”, “72” for “120”

The target of assay [2] is T2, C-Raf kinase (SEQ ID NO: 2) (Homo sapiens, UniProt P04049, Y340D/Y341D).
T2 construct: C-Raf residues 306-end; Y340D, Y341D with N-; GST (N); purchased Sigma
The experiment in a line: Biochemical assay for C-Raf (coupled pyruvate kinase/lactate dehydrogenase). Particulars: 1 mM ATP; read-out: CRAF (inhibition of biochemical activity, IC50).

The test system of another assay is MiaPaca-2 cells. The experiment in a line: MiaPaca-2 cell proliferation assay. It is filed as cell-based. To be noted: Homo sapiens, MIA PaCa-2; 67-72 h incubation, resazurin; read-out: MiaPaca-2 (inhibition of cell proliferation, IC50). Here is the method: Miapaca-2 cells (catalog #CRL-1420) are obtained from the American Type Culture Collect (ATTC, Manassas, VA). Briefly, cells were grown in DMEM supplemented with 10% characterized fetal bovine serum (Invitrogen, Carlsbad, CA), 2.5% New Zealand sourced horse serum and 1% Penicillin/Streptomycin/L-Glutamine at 37° C., 5% CO2, and 95% humidity. Cells are expanded until reaching 70-95% confluency at which point they are sub-cultured or harvested for assay use. A serial dilution of test compound is dispensed into a 384-well black clear bottom plate in triplicate. Seven hundred fifty cells are added per well in 50 μL complete growth medium in the 384-well plate. Plates are incubated for 67-72 h at 37° C., 5% CO2, and 95% humidity. At the end of the incubation, 10 μL of a 440 μM solution of resazurin (Sigma, St. Louis, MO) in PBS is added to each well of the plate and plates are incubated for an additional 5-6 h at 37° C., 5% CO2, and 95% humidity. Plates are read on a Synergy2 or equivalent reader (Biotek, Winooski VT) using an excitation of 540 nm and an emission of 600 nm. Data is analyzed using Prism software (GraphPad, San Diego, CA) to calculate IC50 values.

In a further assay the test system is HCT-116 cells. Briefly: HCT-116 cell proliferation assay. The format is cell-based. To be noted: Homo sapiens, HCT-116; 67 to 72 h incubation, resazurin; read-out: HCT-116 (inhibition of cell proliferation, IC50). Here is the method:
HCT-116 cells (catalog #CCL-247) are obtained from the American Type Culture Collect (ATCC, Manassas, VA). Briefly, cells are grown in McCoy's 5A supplemented with 10% characterized fetal bovine serum (Invitrogen, Carlsbad, CA) and 1% Penicillin/Streptomycin/L-Glutamine at 37° C., 5% CO2, and 95% humidity. Cells are expanded until reaching 70-95% confluency at which point they are sub-cultured or harvested for assay use. A serial dilution of test compound is dispensed into a 384-well black clear bottom plate in triplicate. 375 cells are added per well in 50 μL complete growth medium in the 384-well plate. Plates are incubated for 67 to 72 h at 37° C., 5% CO2, and 95% humidity. At the end of the incubation, 40 μL of a […] solution of resazurin (Sigma, St. Louis, MO) in PBS is added to each well of the plate and plates are incubated for an additional 4 to 5 h at 37° C., 5% CO2, and 95% humidity. Plates are read on a Synergy2 or equivalent reader (Biotek, Winooski, VT) using an excitation of 540 nm and an emission of 600 nm. Data is analyzed using Prism software (Graphpad, San Diego, CA) to calculate IC50 values.

T1 sequence (P15056 416-766): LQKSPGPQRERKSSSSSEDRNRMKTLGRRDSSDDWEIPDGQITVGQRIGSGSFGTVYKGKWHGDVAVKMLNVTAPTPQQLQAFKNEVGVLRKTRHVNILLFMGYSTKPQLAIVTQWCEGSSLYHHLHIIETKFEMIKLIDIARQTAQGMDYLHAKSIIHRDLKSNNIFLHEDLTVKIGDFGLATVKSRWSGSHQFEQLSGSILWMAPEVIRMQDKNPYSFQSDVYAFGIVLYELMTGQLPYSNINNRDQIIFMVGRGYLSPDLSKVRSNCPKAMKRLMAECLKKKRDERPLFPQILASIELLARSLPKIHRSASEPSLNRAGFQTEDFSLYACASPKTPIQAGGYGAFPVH
T2 sequence (P04049 307-648 Y340D/Y341D): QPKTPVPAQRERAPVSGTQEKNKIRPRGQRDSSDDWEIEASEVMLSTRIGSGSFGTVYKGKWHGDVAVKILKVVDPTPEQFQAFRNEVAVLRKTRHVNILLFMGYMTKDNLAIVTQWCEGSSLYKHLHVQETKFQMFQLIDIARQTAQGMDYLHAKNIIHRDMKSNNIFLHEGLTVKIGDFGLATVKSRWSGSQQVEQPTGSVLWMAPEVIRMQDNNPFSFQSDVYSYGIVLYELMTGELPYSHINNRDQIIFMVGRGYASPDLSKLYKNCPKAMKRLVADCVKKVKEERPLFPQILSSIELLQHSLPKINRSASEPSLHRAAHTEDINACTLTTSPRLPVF

With `CNc1cc(N2C[C@H]3C[C@@H]2CO3)nc(-c2cc(NC(=O)c3cc(C(F)(F)F)cnn3)ccc2C)n1` [Example 91], the IC50 was 1000 to 10000 nM with HPAF-II cells; 1000 to 10000 nM in assay [1]; 1000 to 10000 nM in the assay with Pa16c cells; 1000 to 10000 nM in assay [2]; 500 to 1000 nM in the assay with MiaPaca-2 cells; 1000 to 10000 nM in the assay with HCT-116 cells.

As for `Cc1ccc(NC(=O)c2cc(C3CC3)cnn2)cc1-c1cc(N[C@H](C)CO)nc(N2CCOCC2)n1` [Example 36], the IC50 lay in the range of 100 to 500 nM in the assay on HPAF-II cells; 100 to 500 nM in assay [1]; 500 to 1000 nM with Pa16c cells; 100 to 500 nM in assay [2]; 100 to 500 nM in the assay on MiaPaca-2 cells; 100 to 500 nM in the assay with HCT-116 cells.

With `Cc1ccc(NC(=O)c2cc(C3CC3)cnn2)cc1-c1ccnc(N2CCOCC2)n1` [Example 31], the IC50 is 100 to 500 nM in the assay with HPAF-II cells; 1000 to 10000 nM in assay [1]; less than 100 nM with Pa16c cells; 500 to 1000 nM in assay [2]; 100 to 500 nM in the assay with MiaPaca-2 cells; 100 to 500 nM in the assay with HCT-116 cells.

Take `Cc1ccc(NC(=O)c2cc(C3CC3)cnn2)cc1-c1ccnc(N2C[C@H]3C[C@@H]2CO3)c1` [Example 88]: the IC50 was less than 100 nM with HPAF-II cells; 100 to 500 nM in assay [1]; less than 100 nM in the assay with Pa16c cells; less than 100 nM in assay [2]; less than 100 nM in the assay on MiaPaca-2 cells; less than 100 nM in the assay on HCT-116 cells.

On to `Cc1ccc(NC(=O)c2cnc(Cl)nc2)cc1-c1cc(N[C@H](C)CO)nc(N2CCOCC2)c1` [Example 38], for which the IC50 in the assay with HPAF-II cells was in the range of 1000 to 10000 nM; in assay [1] it was 1000 to 10000 nM; in the assay with Pa16c cells, 1000 to 10000 nM; in assay [2], 500 to 1000 nM; with MiaPaca-2 cells, 1000 to 10000 nM; in the assay with HCT-116 cells, 1000 to 10000 nM.

In the case of `Cc1ccc(NC(=O)c2cc(C3CC3)cnn2)cc1-c1cc(N2CCOCC2)ncn1` [Example 40], the IC50 with HPAF-II cells lay within 500 to 1000 nM; in assay [1] it was 100 to 500 nM; with Pa16c cells it was 1000 to 10000 nM; in assay [2], 500 to 1000 nM; in the assay on MiaPaca-2 cells, 1000 to 10000 nM; in the assay on HCT-116 cells, 500 to 1000 nM.

In the case of `Cc1ccc(NC(=O)c2cc(C(F)(F)F)cnn2)cc1-c1cc(N2CCOCC2)nc(N[C@H](C)CO)n1` [Example 33], the IC50 in the assay on HPAF-II cells was 100 to 500 nM; in assay [1], 100 to 500 nM; in the assay with Pa16c cells, 100 to 500 nM; in assay [2], less than 100 nM; in the assay with MiaPaca-2 cells it was 100 to 500 nM; with HCT-116 cells, 100 to 500 nM.

For the compound `Cc1ccc(NC(=O)c2cc(Cl)cnn2)cc1-c1cc(N[C@H](C)CO)nc(N2CCOCC2)c1` [Example 15], the IC50 with HPAF-II cells was 100 to 500 nM; in assay [1] it was 100 to 500 nM; in the assay on Pa16c cells, 100 to 500 nM; in assay [2] it was less than 100 nM; in the assay with MiaPaca-2 cells it was less than 100 nM; with HCT-116 cells, less than 100 nM.

For the compound `Cc1ccc(NC(=O)c2cc(Cl)cnn2)cc1-c1cccc(N2CCOCC2)c1` [Example 75], the IC50 (in the assay on HPAF-II cells; in assay [1]; in the assay on Pa16c cells; in assay [2]; in the assay on MiaPaca-2 cells; in the assay with HCT-116 cells) was 1000 to 10000 nM throughout.

As to `Cc1ccc(NC(=O)c2cc(C(C)C)cnn2)cc1-c1ccnc(N2CCOCC2)n1` [Example 73], the IC50 in the assay on HPAF-II cells lay in the range of 1000 to 10000 nM; in assay [1], 1000 to 10000 nM; in the assay with Pa16c cells, 1000 to 10000 nM; in assay [2], 100 to 500 nM; with MiaPaca-2 cells, 1000 to 10000 nM; with HCT-116 cells, 500 to 1000 nM.

With `Cc1ccc(NC(=O)c2cncc(Cl)n2)cc1-c1cc(N[C@H](C)CO)nc(N2CCOCC2)c1` [Example 9], the IC50 in the assay with HPAF-II cells is 500 to 1000 nM; in assay [1], 100 to 500 nM; with Pa16c cells, 1000 to 10000 nM; in assay [2], 100 to 500 nM; with MiaPaca-2 cells it was 1000 to 10000 nM; with HCT-116 cells, 1000 to 10000 nM.

Regarding `Cc1ccc(NC(=O)c2cnc(C(C)C)nc2)cc1-c1cc(N[C@H](C)CO)nc(N2CCOCC2)c1` [Example 54], the IC50 is 1000 to 10000 nM in the assay on HPAF-II cells; 100 to 500 nM in assay [1]; 1000 to 10000 nM in the assay with Pa16c cells; less than 100 nM in assay [2]; 1000 to 10000 nM in the assay on MiaPaca-2 cells; 1000 to 10000 nM with HCT-116 cells.

In the case of `Cc1ccc(NC(=O)c2cc(C(F)(F)F)cnn2)cc1-c1cncc(N2CCOCC2)n1` [Example 59], the IC50 fell in the range of 500 to 1000 nM with HPAF-II cells; 1000 to 10000 nM in assay [1]; 100 to 500 nM with Pa16c cells; 1000 to 10000 nM in assay [2]; 500 to 1000 nM in the assay on MiaPaca-2 cells; 500 to 1000 nM with HCT-116 cells.

`Cc1ccc(NC(=O)c2cc(C(F)(F)F)cnn2)cc1-c1ccnc(N2CCOC(C(F)F)C2)c1` (stereo not drawn) [Example 26]: the IC50 in the assay on HPAF-II cells lay in the range of 100 to 500 nM; in assay [1], 100 to 500 nM; in the assay with Pa16c cells, 500 to 1000 nM; in assay [2] it was 100 to 500 nM; in the assay on MiaPaca-2 cells, 100 to 500 nM; in the assay on HCT-116 cells, 100 to 500 nM.

For the compound `CNc1cc(-c2cc(NC(=O)c3cc(C(F)(F)F)cnn3)ccc2C)nc(N2C[C@H]3C[C@@H]2CO3)n1` [Example 94], the IC50 with HPAF-II cells is less than 100 nM; in assay [1], 1000 to 10000 nM; with Pa16c cells it was less than 100 nM; in assay [2], 1000 to 10000 nM; in the assay on MiaPaca-2 cells, less than 100 nM; in the assay on HCT-116 cells, less than 100 nM.

With `Cc1ccc(NC(=O)c2cc(C3CC3)cnn2)cc1-c1cc(N[C@H](C)CO)nc(N2CCOCC2)c1` [Example 70], the IC50 (in the assay on HPAF-II cells; in assay [1]; with Pa16c cells; in assay [2]; in the assay on MiaPaca-2 cells; in the assay with HCT-116 cells) was less than 100 nM throughout.

Take `Cc1ccc(NC(=O)c2cc(C(N)=O)cnn2)cc1-c1cc(N[C@H](C)CO)nc(N2CCOCC2)c1` [Example 80]: the IC50 lay in the range of 1000 to 10000 nM with HPAF-II cells; 1000 to 10000 nM in assay [1]; 1000 to 10000 nM in the assay on Pa16c cells; 500 to 1000 nM in assay [2]; 100 to 500 nM in the assay with MiaPaca-2 cells; 500 to 1000 nM in the assay on HCT-116 cells.
